{"source": "patent US20240041922A1", "about": "“METHODS AND COMPOSITIONS” (Monash University, priority 2020, published 2024)", "key": {"[1]": {"tested_on": "macrophages", "test": "Nitroreductase-mediated macrophage ablation by metronidazole, Tg(mpeg1:GAL4FF/UAS:NfsB-mCherry)", "type": "in vivo, zebrafish", "procedure": "(§1) Cell ablation was carried out as previously described (Pisharath, H. & Parsons, M. J. in Zebrafish 133-143 (Springer, 2009)) with minor modifications. Larvae at the appropriate stage were incubated in 5-10 mM metronidazole (Mtz) (Sigma-Aldrich) in Ringer's solution and daily refreshed until experimental end point. Drug treatments were carried out by incubating 4 dpf needle stick injured larvae in 5 and 10 μM cenicriviroc (CVC) (Med Chem Express) and 5 and 10 μM maraviroc (MVC) (Med Chem Express) in Ringer's solution immediately post injury and refreshed daily."}, "[2]": {"tested_on": "mmp9+/mpeg+ macrophages", "test": "Metronidazole ablation of mmp9-expressing macrophages, TgBAC(mmp9:EGFP-NTR)", "type": "in vivo, zebrafish", "procedure": "as §1\nIn order to more directly implicate Cluster 2 macrophages in the regulation of regenerative muscle stem cell proliferation, we specifically ablated these cells during the repair process, using an alternative mmp9 promoter-driven transgenic line that expressed the nitroreductase enzyme fused to EGFP (TgBAC(mmp9:EGFP-NTR)^24). These larvae were subjected to a needle stab muscle injury at 4 dpf (0 dpi). At 1.75 dpi larvae were treated with 5 mM Mtz, a dosing that specifically ablated 77.94% of mmp9^+/mpeg^+-macrophages present in the injury zone (FIG. 10b-d). Specific ablation of these cells led to a significant skeletal muscle repair deficit (FIG. 3p-q) and a severe reduction in muscle stem cell proliferation to levels similar to those evident upon mpeg^+-dwelling macrophage ablation, documented above (FIG. 2f-h, FIG. 3r, FIG. 10e-g). Collectively, these analyses indicate that Cluster 2 contains a specific mmp9^+ muscle stem cell-associated, dwelling macrophage subset required for muscle stem cell proliferation during muscle regeneration"}, "[3]": {"tested_on": "larval zebrafish", "test": "Tolerability of metronidazole in larval zebrafish", "type": "in vivo", "details": "10 mM Mtz", "procedure": "as §1"}, "[4]": {"tested_on": "rectus femoris muscle", "details": "for muscle architecture / regenerated muscle area: delivered in fibrin hydrogel, 10 days post treatment", "procedure": "Injury: male C57BL/6J mice aged between 10-12 weeks were anesthetised and shaved on the hind left leg. A unilateral incision measuring approximately 1 cm was made exposing the underlying fascia. The left hind limb was extended and exteriorised via the incision site by retracting the surrounding tissue. A 3×4 mm full thickness segment of the rectus femoris muscle was removed. Directly after, the injury site was filled with fibrin hydrogel with or without 200 ng or 500 ng of hrNAMPT(1) (hydrogel components; 40 μl, 8 mg/ml human fibrinogen (FIB3, Enzyme Research Laboratories), 4 U/ml bovine thrombin (T4648, Sigma), 5 mM CaCl2, 17 μg/ml of aprotinin (ab146286, Abcam)) which polymerized in the defect. Then, the soft tissue was closed with stitches.\nHistology: 10 days after treatment, animals were sacrificed and the wounds were harvested for histological analysis. The defect site and associated proximal and distal segment of the quadriceps muscle (including the rectus femoris, vastus medialis and vastus lateralis) were excised and embedded. Histological analysis was performed on serial paraffin sections (4 μm sections collected passing the central portion of the wound). Multiple sections were stained with Masson's Trichrome (to detect collagen deposition) and the extent of fibrosis (represented by a blue stain) was measured by histomorphometric analysis using ImageJ software (version 1.51h, National Institutes of Health, USA). To maintain uniformity between samples, the length of the vastus medialis taken at multiple depths ranging from 1.0 mm-3.0 mm serves as a reference between tissue sections to determine the depth of sectioning. For fibrotic quantification, average muscle fibrosis area at each depth was scored and normalised with the area of the rectus femoris. Total area of muscle is determined by calculating the average area of rectus femoris at each depth.\nImmune cell profiling and PAX7^+ cell quantification with flow cytometry: 4, 6 or 8 days after treatment with either 0.5 μg of hrNAMPT(1) delivered by fibrin hydrogel or control fibrin hydrogel only, mice were euthanised via CO2 asphyxiation. The defect site and associated proximal and distal segment of the quadricep muscles were isolated and placed into 890 μl of complete RPMI (with 10% FBS and 2 mM Glutamax, Life Technologies). The tissue was minced with surgical scissors and 100 μl of 10 mg/ml Collagenase II (Sigma-Aldrich) and 10 μl of 10 mg/ml DNAse I (Biolabs), while 100 μl of dispase II (10 mg/ml) was added into the digestion for PAX7 acquisition. The mixture was vortexed and incubated at 37° C. for 45 min. The collagenase was then inactivated with 500 μl ice-cold PBS, 5% FBS, 5 mM EDTA. The mixture was strained subsequently through 70 μm and 40 μm filters. The cell suspension was further diluted with 1 ml complete RPMI and centrifuged for 10 min at 300× g. The supernatant was discarded and the pellet was resuspended in 250 μl complete RPMI and aliquoted into wells of a 96-well U bottom plate for antibody staining. The cell solutions were centrifuged, supernatant discarded, and washed with PBS. The cell viability stain used was 100 μl of Zombie Aqua (Biolegend) Live-Dead dye diluted in PBS (1:400 dilution) and incubated for 30 min at 4° C. The cells were then blocked with FcX (anti-CD16/32 antibodies, Biolegend, 1 μg/ml) flow cytometry buffer (PBS, 5% FBS). The cells were kept for 20 min at 4° C., washed with flow cytometry buffer and centrifuged. […]"}, "[5]": {"tested_on": "PAX7+ satellite cells", "test": "Primary mouse myoblast mono- and co-cultures, PAX7+ satellite cell proliferation (EdU)", "type": "cell-based", "details": "for satellite cell proliferation on supplementation: myoblast monoculture (MB) and MB+3T3 co-culture, 24 h", "procedure": "Larvae: Labelling and detection was carried out as previously described (Nguyen, P. D. et al. Muscle stem cells undergo extensive clonal drift during tissue growth via Meox1-mediated induction of G2 cell-cycle arrest. […] Cell culture: Cells were incubated for 1 h in media supplemented with 10 μM EdU. […] Cells were processed using the Click-iTTM EdU Alexa FluroTM 647 imaging Kit (Thermo Fisher) following the manufacturer's protocol. For isolation of primary mouse myoblasts, limb skeletal muscle from E17.5 C57/BL6J mice were minced and digested in 0.125% Trypsin at 37° C. for 20 min. […] Myoblasts were again depleted for fibroblasts prior to co-culturing on gelatin-coated 48 well plates in DMEM+20% FBS+10% L929-conditioned medium. 100,000 myoblasts were plated with either 7,500 MafB/c-Maf deficient (Maf-DKO) macrophages (Aziz, A., Soucie, E., Sarrazin, […]. MafB/c-Maf deficiency enables self-renewal of differentiated functional macrophages. […] For drug treatments, the media were supplemented with appropriate doses and cultured for 24 h."}, "[6]": {"tested_on": "wound-resident muscle stem cells", "test": "Larval zebrafish needle stab muscle injury, wound site proliferation (EdU)", "type": "in vivo", "procedure": "4dpf larvae were anaesthetized in 0.01% tricaine (MS-222) (Sigma-Aldrich) in Ringer's solution. Mechanical injures were targeted either to the dorsal or ventral myotome above the cloaca when the larvae is oriented dorsal to the top, anterior to the left. Needle-stick injury was carried out as previously described (Gurevich, D. B. el al. Asymmetric division of clonal muscle stem cells co-ordinate muscle regeneration in vivo. Science 353 6295 aad9969 (2016)). Briefly, the myotome was subjected to a single 30-gauge needle puncture that generates an extensive injury with many damaged muscle fibres. For laser-induced injury, anaesthetised larvae were mounted in a thin layer of 1% low-melt agarose in Ringer's solution. Injuries were carried out using a UV-nitrogen laser pulsed through a coumarin 440 nm dye cell coupled to a Zeiss Axioplan microscope (MicroPoint Laser System, Andor Technology). On average a laser injury required pulses for 5-10 sec from laser beams focused through a 40× water immersion objective. For time-lapse analysis of the immediate response to injury, muscle fibre ablations were achieved using a SIM scanner (Olympus) at 790 nm and 200 msec dwell time at 100% laser power on an Olympus FVMPE-RS upright multi-photon microscope equipped with a 25×/1.05 water immersion objective. Injury-responding macrophages were tracked using the manual tracking plugin in Fiji.\nas §1\nThe effect of drug treatment on laser ablation muscle injury was assayed by treating larvae with 5 μM CVC for 2 h prior to injury and with larvae being maintained in the drug until experimental end point. […] Chemokine supplementation experiments were carried out in plasticware coated with 0.1% bovine serum albumin (BSA) overnight (rinsed in Ringer's solution prior to use) to minimise protein adsorption. Larvae were treated with 57 nM recombinant human visfatin (hrNAMPT(1)) (PeproTech), 57 nM recombinant murine CCL8/MCP-2 (mrCCL8) (PeproTech) and combinations with Mtz and CVC.\nLarvae: Labelling and detection was carried out as previously described (Nguyen, P. D. et al. Muscle stem cells undergo extensive clonal drift during tissue growth via Meox1-mediated induction of G2 cell-cycle arrest. Cell Stem Cell 21, 107-119. e106 (2017))^55 with minor alteration. 6 dpf/2 dpi larvae were pulsed with 2.5 nM EdU (Thermo Fisher) for 1h and chased for a further 1.5 h prior to fixation. Cell culture: Cells were incubated for 1 h in media supplemented with 10 μM EdU. Following Edu pulse, C2C12 cells were fixed immediately, while primary mouse myoblast co-cultures were rinsed in PBS, replaced with media and incubated for a further 2 h following which the cells were fixed. Cells were processed using the Click-iT™ EdU Alexa Fluro™ 647 imaging Kit (Thermo Fisher) following the manufacturer's protocol."}, "[7]": {"details": "single dose 0.5 μg in fibrin hydrogel, vs fibrin only"}}, "note": "“Also recorded” adds a separate entry of the source. Read-outs that look alike come from different tables or passages of the source."}
{"compound": "Cc1ncc([N+](=O)[O-])n1CCO", "note": "[Mtz, metronidazole]", "values": [{"measurement": "time to start of macrophage ablation after Mtz addition", "setting": "[1]; 5 mM Mtz", "result": 3, "unit": "h"}, {"measurement": "macrophage ablation", "setting": "[1]; 5 mM Mtz for 24 h from 4 dpf, trunk macrophages at 5 dpf", "result": 77, "unit": "%"}, {"measurement": "time until majority of trunk macrophages ablated", "setting": "[1]; Mtz", "result": "10 to 13", "unit": "h"}, {"measurement": "ablation of mmp9+/mpeg+ macrophages", "setting": "[2]; 5 mM Mtz at 1.75 dpi", "result": 77.94, "unit": "%"}, {"measurement": "number of mmp9+/mpeg+ macrophages in injury zone", "setting": "[2]; Mtz treated", "result": "2.18±1.19"}, {"measurement": "number of mmp9-/mpeg+ macrophages in injury zone", "setting": "[2]; Mtz treated", "result": "6.65±1.50"}, {"measurement": "lethality, needle stab injured larvae", "setting": "[3]", "result": "significant lethality"}, {"measurement": "tolerability, uninjured larvae", "setting": "[3]", "result": "able to tolerate"}]}
{"compound": "Nicotinamide phosphoribosyltransferase [NAMPT]", "values": [{"measurement": "centrally nucleated muscle fibres", "setting": "[4]; 6 days post treatment", "result": "significant increase the number of centrally nucleated de novo muscle fibres"}, {"measurement": "muscle architecture / regenerated muscle area", "setting": "[4]", "result": "significantly increased the regenerated muscle area"}, {"measurement": "muscle architecture / regenerated muscle area", "setting": "[4]; listed as hrNAMPT", "result": "able to fully restore muscle architecture"}, {"measurement": "decrease in average fibrotic area", "setting": "[4]; [7]", "result": "34.76±9.32", "unit": "%"}, {"measurement": "increase in average muscle area", "setting": "[4]; [7]", "result": "3.276±0.4926", "unit": "mm^2"}, {"measurement": "satellite cell proliferation on supplementation in presence of macrophages", "setting": "[5]; MB+macrophage co-culture", "result": "did not increase satellite cell proliferation in the presence of macrophages"}, {"measurement": "satellite cell proliferation on supplementation", "setting": "[5]", "result": "enhanced proliferation; also recorded: stimulates proliferation of PAX7^+ satellite cells"}, {"measurement": "satellite cell proliferation on supplementation", "setting": "[5]; listed as hrNAMPT", "result": "able to increase the proliferation of satellite cells in MB and MB+3T3 culture conditions"}, {"measurement": "wound site proliferation in macrophage-ablated larvae", "setting": "[6]; 5 mM Mtz added at 4 dpf/0 dpi", "result": "rescues the proliferation deficit generated by ablating macrophages; also recorded: rescues the proliferative deficit that occurs upon macrophage ablation; also recorded: functioned to rescue wound site proliferation in macrophage-ablated larvae"}, {"measurement": "wound site proliferation, NAMPT together with CVC", "setting": "[6]; Ccr5 inhibited by CVC", "result": "failed to rescue the proliferation defect; also recorded: resistant to NAMPT mediated rescue; also recorded: failed to rescue the proliferation deficit when supplemented in conjunction with CVC"}, {"measurement": "increase in wound site proliferation above control response in macrophage-ablated larvae", "setting": "[6]; macrophages ablated with Mtz", "result": "10.96±3.55", "unit": "%"}, {"measurement": "wound site muscle stem cell proliferation", "setting": "[6]; needle stab injury, agent alone", "result": "specifically enhanced wound-resident muscle stem cell proliferation; also recorded: increases wound site proliferation in control settings"}, {"measurement": "increase in muscle stem cell proliferation within the wound site vs control", "setting": "[6]; needle stab injury, supplementation", "result": "30.70±4.26", "unit": "%"}]}
